Source: the supplement of paper PMC10307832

Legend:
Assay in all cases: relative viability (nuclei count vs DMSO), 5 days (fraction); higher = more cells survive
BI-D1870 + Vorinostat = compound: CC(C)CCN1c2nc(Nc3cc(F)c(O)c(F)c3)ncc2N(C)C(=O)C1C [BI-D1870] + O=C(CCCCCCC(=O)Nc1ccccc1)NO [Vorinostat] (partner 1 µM)
Procedure, shortened: (§1)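 Nuclei were stained with Hoechst during a one-step fixation (final 0.05% Triton X-100, 1% formaldehyde, 1 ug/ml Hoechst) carried out 5 days after dosing, then counted on 4× images. The cells, lung cancer lines in 1536-well plates, had been dosed by pin tool the day after seeding with one drug alone or a fixed anchor-drug dose plus five library-drug doses (not always all listed) in √10 steps. Relative viability is the nuclei count in treated wells divided by that in vehicle wells, and each value is the median of duplicate plates.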

BI-D1870 + Phenformin = compound: CC(C)CCN1c2nc(Nc3cc(F)c(O)c(F)c3)ncc2N(C)C(=O)C1C [BI-D1870] + N=C(N)NC(=N)NCCc1ccccc1 [Phenformin] (partner 250 µM)
Procedure, shortened: as §1

Zebularine + Vorinostat = compound: O=c1ncccn1[C@@H]1O[C@H](CO)[C@@H](O)[C@H]1O [Zebularine] + O=C(CCCCCCC(=O)Nc1ccccc1)NO [Vorinostat] (partner 1 µM)
Procedure, shortened: as §1

Zebularine + Lapatinib = compound: O=c1ncccn1[C@@H]1O[C@H](CO)[C@@H](O)[C@H]1O [Zebularine] + CS(=O)(=O)CCNCc1ccc(-c2ccc3ncnc(Nc4ccc(OCc5cccc(F)c5)c(Cl)c4)c3c2)o1 [Lapatinib] (partner 2 µM)
Procedure, shortened: as §1

Cell Line	relative viability (BI-D1870 + Vorinostat; first compound 0.04 µM)	relative viability (BI-D1870 + Vorinostat; first compound 0.1265 µM)	relative viability (BI-D1870 + Vorinostat; first compound 0.4 µM)	relative viability (BI-D1870 + Vorinostat; first compound 1.265 µM)	relative viability (BI-D1870 + Vorinostat; first compound 4 µM)	relative viability (BI-D1870 + Phenformin; first compound 0.04 µM)	relative viability (BI-D1870 + Phenformin; first compound 0.1265 µM)	relative viability (BI-D1870 + Phenformin; first compound 0.4 µM)	relative viability (BI-D1870 + Phenformin; first compound 1.265 µM)	relative viability (BI-D1870 + Phenformin; first compound 4 µM)	relative viability (Zebularine + Vorinostat; first compound 1 µM)	relative viability (Zebularine + Vorinostat; first compound 3.162 µM)	relative viability (Zebularine + Vorinostat; first compound 10 µM)	relative viability (Zebularine + Vorinostat; first compound 31.62 µM)	relative viability (Zebularine + Vorinostat; first compound 100 µM)	relative viability (Zebularine + Lapatinib; first compound 1 µM)	relative viability (Zebularine + Lapatinib; first compound 3.162 µM)	relative viability (Zebularine + Lapatinib; first compound 10 µM)	relative viability (Zebularine + Lapatinib; first compound 31.62 µM)	relative viability (Zebularine + Lapatinib; first compound 100 µM)
NCI-H838	0.719	0.643	0.682	0.68	0.558	0.523	0.503	0.613	0.595	0.518	0.712	0.723	0.654	0.859	0.402	1.19	1.14	0.632	0.834	0.382
NCI-H1755	0.938	0.738	0.705	0.849	0.788	0.651	0.62	0.647	0.688	0.573	0.809	0.892	0.614	1.11	0.648	1.17	0.991	0.802	1.11	0.497
HCC-78	0.438	0.408	0.392	0.497	0.381	0.72	0.796	0.795	0.822	0.593	0.535	0.462		0.444	0.337	1.1	0.43	0.871	0.729	0.181
IA-LM	1.02	0.927	0.913	1.08	0.874						1.01	0.697	0.365	1.02	0.854	0.908	1.07		0.773	0.599
NCI-H322M	0.919	0.879	0.76	0.781	0.769	0.841	0.764	0.668	0.626	0.701	0.946	0.873	1.21	0.945	0.537	0.608	0.589	0.586	0.601	0.576
NCI-H3122	1.05	0.633	0.858	1.21	0.998	0.362	0.354	0.383	0.39	0.346	1.14	0.937	0.792	1.09	0.996	1.12	1.05	0.911	1.04	1.05
COR-L23	0.615	0.402	0.494	0.5	0.269	0.461	0.438	0.499	0.407	0.324	0.511	0.475	0.389	0.299	0.174	1.1	0.924	0.5	0.383	0.232
NCI-H2087	0.634	0.595	0.96	0.92	0.849	0.512	0.532	0.486	0.536	0.459	1.1	0.652	0.285	0.667	0.303	1.16	0.662	0.615	0.924	0.275
LC-2-ad	0.696	0.646	0.701	0.705	0.56	0.586	0.657	0.502	0.636	0.54	0.759	0.691	0.527	0.644	0.324	1.05	0.886	0.722	0.584	0.168
NCI-H1915	0.55	0.484	0.513	0.489	0.436	0.376	0.358	0.378	0.305	0.291	0.538	0.53	0.412	0.607	0.585	1.12	0.961	0.717	1.13	0.979
NCI-H1792						0.361	0.289	0.259	0.504	0.508						0.978	0.879	0.416	0.428	0.284
ChaGo-K-1	0.8	0.703	0.711	0.72	0.641	0.481	0.522	0.477	0.481	0.412	0.767	0.648	0.442	0.274	0.252					
NCI-H2342	0.806	0.61	0.718	0.812	0.966	0.546	0.609	0.606	0.733	0.829	0.863	0.642	0.674	0.679	0.712					
NCI-H1299																0.965	0.937	0.619	0.968	0.493
SW 900	0.504	0.537	0.582	0.725	0.466	0.748	0.452	0.63	0.672	0.618	0.497	0.667		0.67	0.503					
NCI-H1648	0.345	0.333		0.626	0.697						0.554	0.494	0.479	0.262	0.48					
NCI-H522	1.02	1.09	1.01	0.907	0.94	0.754	0.603	0.677	0.763	0.692	0.797	0.938	0.802	1.01	0.778					
A549						0.211	0.174	0.177	0.207	0.165						1.16	0.941	0.438	0.698	0.2
NCI-H1563						0.669	0.651	0.643	0.682	0.728						1	0.782	0.907	1.13	0.946
LCLC-103H	0.886	0.719	0.786	0.755	0.535	0.376	0.301	0.316	0.36	0.324	0.812	0.697	0.706	0.77	0.75					
NCI-H441	0.686	0.794	0.731	0.722	0.655	1.02	0.832	0.74	1.17	0.872	1.03	0.908	0.404	0.317	0.362					
